Converted amounts (≈) assume the structure as drawn. Numbered stars: 1 amine (or outer) side, 2 acyl side, 3 side chain; on linkers, the order of the positions; unused ones are H or OH. Bridge positions count the residues as written; N and C are the ends. Square brackets hold non-standard residues; d marks the D form. Peptide text beside a SMILES is read from it. * marks the point of attachment. ξ: configuration not given here. X5 = CCCCCCCCc1ccc(C[C@@H](N[*:1])C(=O)[*:2])cc1; ξHexahydromandeloyl = O=C(C(O)C1CCCCC1)*; dCha = N[C@H](CC1CCCCC1)C(=O)O; Thr(3ξ) = CC(O)[C@H](N)C(=O)O; X20 = NCC(Cc1ccccc1F)C(=O)*; X4 = CC(C)CC1CNCC(C(=O)*)C1; X22 = NC(CCC(=O)*)C1CCCCC1; Dab = NCC[C@H](N)C(=O)O; Dap = NC[C@H](N)C(=O)O
How the values were obtained:
Format in all cases: cell-based
Acinetobacter baumannii = tested on: Acinetobacter baumannii
How it was run: (§1)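 Values are minimum inhibitory concentrations in μg/mL, measured across a panel of up to nine strains of each Gram-negative pathogen, some Polymyxin-elevated or resistant.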

Escherichia coli = tested on: Escherichia coli
How it was run: as §1

Klebsiella pneumoniae = tested on: Klebsiella pneumoniae
How it was run: as §1

Pseudomonas aeruginosa = tested on: Pseudomonas aeruginosa
How it was run: as §1

| Structure (SMILES) | MIC A. baumanii ATCC BAA-747 (Acinetobacter baumannii) [µg/mL] | MIC A. baumanii NCTC 13424 (Acinetobacter baumannii) [µg/mL] | MIC E. coli 058 (Escherichia coli) [µg/mL] | MIC E. coli ATCC 25922 (Escherichia coli) [µg/mL] | MIC E. coli NCTC 9001 (Escherichia coli) [µg/mL] | MIC K. pneumoniae 065 (Klebsiella pneumoniae) [µg/mL] | MIC K. pneumoniae ATCC 13882 (Klebsiella pneumoniae) [µg/mL] | MIC P. aeruginosa ATCC 27853 (Pseudomonas aeruginosa) [µg/mL] | MIC P. aeruginosa CCUG 59347 (Pseudomonas aeruginosa) [µg/mL] | MIC A. baumanii 053 (Acinetobacter baumannii) [µg/mL] | MIC A. baumanii 056 (Acinetobacter baumannii) [µg/mL] | MIC E. coli 061 (Escherichia coli) [µg/mL] | MIC K. pneumoniae 063 (Klebsiella pneumoniae) [µg/mL] | MIC P. aeruginosa 068 (Pseudomonas aeruginosa) [µg/mL] | MIC P. aeruginosa 070 (Pseudomonas aeruginosa) [µg/mL] | other results |
| --- | --- | --- | --- | --- | --- | --- | --- | --- | --- | --- | --- | --- | --- | --- | --- | --- |
| CC(C)C[C@@H]1NC(=O)[C@@H](CC2CCCCC2)NC(=O)[C@H](CCN)NC(=O)[C@@H](NC(=O)[C@H](CCN)NC(=O)[C@@H](NC(=O)C(CCN)c2cccc(Cl)c2)[C@@H](C)O)CCNC(=O)[C@H]([C@@H](C)O)NC(=O)[C@H](CCN)NC(=O)[C@H](CCN)NC1=O (single isomer, unassigned; isomer 2) [Example 55, 4-amino-2-(3-chlorophenyl) butanoyl polymyxin [D-cyclohexylalanine]-6 nonapeptide. isomer 2] | 0.125 (≈ 0.107 µM) | 0.25 (≈ 0.215 µM) | 2 (≈ 1.72 µM) | 0.25 (≈ 0.215 µM) | 0.06 (≈ 0.0515 µM) | 1 (≈ 0.858 µM) | 0.25 (≈ 0.215 µM) | 0.125 (≈ 0.107 µM) | 0.5 (≈ 0.429 µM) | 8 (≈ 6.87 µM) | 4 (≈ 3.43 µM) | 16 (≈ 13.7 µM) | 16 (≈ 13.7 µM) | 4 (≈ 3.43 µM) | 4 (≈ 3.43 µM) |  |
| CCC(C)CC(CCN)C(=O)N[C@H](C(=O)N[C@@H](CN)C(=O)N[C@H]1CCNC(=O)[C@H]([C@@H](C)O)NC(=O)[C@H](CCN)NC(=O)[C@H](CCN)NC(=O)[C@H](CC(C)C)NC(=O)[C@@H](CC2CCCCC2)NC(=O)[C@H](CCN)NC1=O)C(C)O (single isomer, unassigned; isomer 2) [Example 47, 2-(2-aminoethyl)-4-methylhexanoyl L-Thr-L-Dap-polymyxin [D-cyclohexylalanine]-6 heptapeptide. Isomer 2] | 0.125 (≈ 0.113 µM) | 0.25 (≈ 0.225 µM) | 4 (≈ 3.6 µM) | 0.25 (≈ 0.225 µM) | 0.125 (≈ 0.113 µM) | 0.5 (≈ 0.45 µM) | 0.5 (≈ 0.45 µM) | 0.5 (≈ 0.45 µM) | 0.5 (≈ 0.45 µM) |  |  |  |  |  |  |  |
| CCCCCCCCc1ccc(C[C@H]2NC(=O)[C@H](CCN)NC(=O)[C@@H](NC(=O)[C@H](CN)NC(=O)[C@@H](NC(=O)C3CNCC(CC(C)C)C3)C(C)O)CCNC(=O)[C@H]([C@@H](C)O)NC(=O)[C@H](CCN)NC(=O)[C@H](CCN)NC(=O)[C@H](CC(C)C)NC2=O)cc1 (some centres unmarked) [Example 23] (X4-[Thr(3ξ)][Dap][Dab][Dab][X5]L[Dab][Dab]T; lactam 3-C) | 2 (≈ 1.63 µM) |  | 2 (≈ 1.63 µM) | 2 (≈ 1.63 µM) |  | 2 (≈ 1.63 µM) |  | 2 (≈ 1.63 µM) |  | 2 (≈ 1.63 µM) | 1 (≈ 0.814 µM) | 2 (≈ 1.63 µM) | 8 (≈ 6.51 µM) | 4 (≈ 3.26 µM) | 4 (≈ 3.26 µM) | MIC E. coli 059 (Escherichia coli): 2 µg/mL (≈ 1.63 µM); MIC E. coli 060 (Escherichia coli): 2 µg/mL (≈ 1.63 µM); MIC K. pneumoniae 062 (Klebsiella pneumoniae): 4 µg/mL (≈ 3.26 µM); MIC K. pneumoniae 064 (Klebsiella pneumoniae): 4 µg/mL (≈ 3.26 µM); MIC K. pneumoniae 066 (Klebsiella pneumoniae): 2 µg/mL (≈ 1.63 µM); MIC K. pneumoniae 067 (Klebsiella pneumoniae): 4 µg/mL (≈ 3.26 µM); MIC K. pneumoniae ATCC 4352 (Klebsiella pneumoniae): 1 µg/mL (≈ 0.814 µM) |
| CC(C)C[C@@H]1NC(=O)[C@@H](CC2CCCCC2)NC(=O)[C@H](CCN)NC(=O)[C@@H](NC(=O)[C@H](CCN)NC(=O)[C@@H](NC(=O)C(CN)Cc2ccccc2F)[C@@H](C)O)CCNC(=O)[C@H]([C@@H](C)O)NC(=O)[C@H](CCN)NC(=O)[C@H](CCN)NC1=O (some centres unmarked) [Example 62, 3-amino-2-(2-fluorobenzyl) propanoyl] (X20-T[Dab][Dab][Dab][dCha]L[Dab][Dab]T; lactam 3-C) | 0.5 (≈ 0.435 µM) | 0.5 (≈ 0.435 µM) | 4 (≈ 3.48 µM) | 0.125 (≈ 0.109 µM) |  | 8 (≈ 6.97 µM) | 0.125 (≈ 0.109 µM) | 0.5 (≈ 0.435 µM) | 0.5 (≈ 0.435 µM) | >64 | >64 | 32 (≈ 27.9 µM) | 64 (≈ 55.7 µM) | 8 (≈ 6.97 µM) | 16 (≈ 13.9 µM) |  |

More lines, main results first:

| MIC A. baumanii ATCC BAA-747 (Acinetobacter baumannii) [µg/mL] | MIC A. baumanii NCTC 13424 (Acinetobacter baumannii) [µg/mL] | MIC E. coli 058 (Escherichia coli) [µg/mL] | MIC E. coli ATCC 25922 (Escherichia coli) [µg/mL] | MIC E. coli NCTC 9001 (Escherichia coli) [µg/mL] | MIC K. pneumoniae 065 (Klebsiella pneumoniae) [µg/mL] | MIC K. pneumoniae ATCC 13882 (Klebsiella pneumoniae) [µg/mL] | MIC P. aeruginosa ATCC 27853 (Pseudomonas aeruginosa) [µg/mL] | MIC P. aeruginosa CCUG 59347 (Pseudomonas aeruginosa) [µg/mL] | MIC A. baumanii 053 (Acinetobacter baumannii) [µg/mL] | MIC A. baumanii 056 (Acinetobacter baumannii) [µg/mL] | MIC E. coli 061 (Escherichia coli) [µg/mL] | MIC K. pneumoniae 063 (Klebsiella pneumoniae) [µg/mL] | MIC P. aeruginosa 068 (Pseudomonas aeruginosa) [µg/mL] | MIC P. aeruginosa 070 (Pseudomonas aeruginosa) [µg/mL] | Structure (SMILES) | other results |
| --- | --- | --- | --- | --- | --- | --- | --- | --- | --- | --- | --- | --- | --- | --- | --- | --- |
| 0.125 (≈ 0.103 µM) | 0.5 (≈ 0.413 µM) | 8 (≈ 6.61 µM) | 0.06 (≈ 0.0496 µM) | 0.06 (≈ 0.0496 µM) | 16 (≈ 13.2 µM) | 0.25 (≈ 0.207 µM) | 0.5 (≈ 0.413 µM) | 0.5 (≈ 0.413 µM) |  |  |  |  |  |  | CC(C)C[C@@H]1NC(=O)[C@@H](CC2CCCCC2)NC(=O)[C@H](CCN)NC(=O)[C@@H](NC(=O)[C@H](CCN)NC(=O)[C@@H](NC(=O)[C@H](CCN)NC(=O)C(O)C2CCCCC2)C(C)O)CCNC(=O)[C@H]([C@@H](C)O)NC(=O)[C@H](CCN)NC(=O)[C@H](CCN)NC1=O (some centres unmarked) [Example 37] (ξHexahydromandeloyl-[Dab][Thr(3ξ)][Dab][Dab][Dab][dCha]L[Dab][Dab]T; lactam 4-C) |  |
| 0.25 (≈ 0.22 µM) | 0.06 (≈ 0.0528 µM) | 4 (≈ 3.52 µM) | 0.06 (≈ 0.0528 µM) | 0.03 (≈ 0.0264 µM) | 0.5 (≈ 0.44 µM) | 0.25 (≈ 0.22 µM) | 0.25 (≈ 0.22 µM) | 0.5 (≈ 0.44 µM) | >64 | 64 (≈ 56.3 µM) | 16 (≈ 14.1 µM) | 16 (≈ 14.1 µM) | 4 (≈ 3.52 µM) | 8 (≈ 7.04 µM) | CC(C)C[C@@H]1NC(=O)[C@@H](CC2CCCCC2)NC(=O)[C@H](CCN)NC(=O)[C@@H](NC(=O)[C@H](CCN)NC(=O)[C@@H](NC(=O)C(CCN)C2CCCCC2)[C@@H](C)O)CCNC(=O)[C@H]([C@@H](C)O)NC(=O)[C@H](CCN)NC(=O)[C@H](CCN)NC1=O (single isomer, unassigned; isomer 2) [Example 69, 4-amino-2-cyclohexylbutanoyl polymyxin [D-cyclohexylalanine]-6 nonapeptide isomer 2] | MIC K. pneumoniae ATCC 4352 (Klebsiella pneumoniae): 0.25 µg/mL (≈ 0.22 µM) |
| 0.125 (≈ 0.111 µM) | 0.125 (≈ 0.111 µM) | 4 (≈ 3.56 µM) | 0.25 (≈ 0.223 µM) |  | 4 (≈ 3.56 µM) | 0.125 (≈ 0.111 µM) | 0.25 (≈ 0.223 µM) | 0.5 (≈ 0.445 µM) | 64 (≈ 57 µM) | 32 (≈ 28.5 µM) | 16 (≈ 14.3 µM) | >64 | 8 (≈ 7.13 µM) | 8 (≈ 7.13 µM) | CC(C)C[C@@H]1NC(=O)[C@@H](CC2CCCCC2)NC(=O)[C@H](CCN)NC(=O)[C@@H](NC(=O)[C@H](CN)NC(=O)[C@@H](NC(=O)CCC(N)C2CCCCC2)[C@@H](C)O)CCNC(=O)[C@H]([C@@H](C)O)NC(=O)[C@H](CCN)NC(=O)[C@H](CCN)NC1=O (stereo partly drawn) [Example 63, 4-amino-4-cyclohexylbutanoyl L-Thr-L-Dap-polymyxin [D-cyclohexylalanine]-6 heptapeptide.] (X22-T[Dap][Dab][Dab][dCha]L[Dab][Dab]T; lactam 3-C) |  |
